These are literature values, as cited in US9889198B2 (KemPharm, Inc., priority 2010, dated 2018).

For one series, the system named is leptin release. To be noted: chronic oral administration, 6 weeks.
The target of the next series is T1, 5-HT1A receptor (Homo sapiens, UniProt P08908).
T1 sequence (P08908 1-422): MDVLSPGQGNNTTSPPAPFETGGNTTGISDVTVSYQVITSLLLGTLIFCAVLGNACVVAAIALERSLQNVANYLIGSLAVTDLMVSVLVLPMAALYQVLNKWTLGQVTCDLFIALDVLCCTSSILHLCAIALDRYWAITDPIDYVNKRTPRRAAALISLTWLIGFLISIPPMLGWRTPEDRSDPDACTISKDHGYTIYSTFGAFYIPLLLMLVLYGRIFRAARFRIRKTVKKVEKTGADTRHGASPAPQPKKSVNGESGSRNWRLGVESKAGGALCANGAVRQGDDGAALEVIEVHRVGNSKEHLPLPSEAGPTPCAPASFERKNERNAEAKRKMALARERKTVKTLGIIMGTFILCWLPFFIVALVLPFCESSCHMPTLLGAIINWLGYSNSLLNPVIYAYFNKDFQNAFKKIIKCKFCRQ
The note with it: relative to quetiapine.

The target of a further series is human NET (Homo sapiens, UniProt P23975). The note with it: relative to quetiapine.
Chain of human NET (P23975 whole entry): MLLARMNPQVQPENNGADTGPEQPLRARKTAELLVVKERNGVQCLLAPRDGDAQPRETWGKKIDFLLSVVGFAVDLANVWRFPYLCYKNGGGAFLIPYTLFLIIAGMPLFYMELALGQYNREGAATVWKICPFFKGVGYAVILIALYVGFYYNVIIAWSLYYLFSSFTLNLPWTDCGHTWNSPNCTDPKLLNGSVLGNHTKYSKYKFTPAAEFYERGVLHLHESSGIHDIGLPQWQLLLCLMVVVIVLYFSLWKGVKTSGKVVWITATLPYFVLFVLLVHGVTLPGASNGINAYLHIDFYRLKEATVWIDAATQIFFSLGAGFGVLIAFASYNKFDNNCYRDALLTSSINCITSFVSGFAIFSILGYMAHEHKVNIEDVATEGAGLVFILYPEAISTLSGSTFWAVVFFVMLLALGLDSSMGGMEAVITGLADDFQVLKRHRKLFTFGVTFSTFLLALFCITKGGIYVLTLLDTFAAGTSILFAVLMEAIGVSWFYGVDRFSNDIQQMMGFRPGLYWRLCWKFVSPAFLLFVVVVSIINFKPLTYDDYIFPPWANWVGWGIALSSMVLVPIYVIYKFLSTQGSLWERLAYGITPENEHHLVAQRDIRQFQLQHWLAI

In the case of `CCCC(CCC)C(=O)O` [Valproic acid, 2-propylpentanoic acid], where the note is “acute mania patients”, the “response rate in acute mania” value is reported as “around 50%”. In addition, the “response rate in bipolar depression” value (bipolar depression) is roughly 30%.

For the molecule `OCCOCCN1CCN(C2=Nc3ccccc3Sc3ccccc32)CC1` [quetiapine, 2-(2-(4-(dibenzo[b,f][1,4]thiazepin-11-yl)piperazin-1-yl)ethoxy)ethanol], the “increase in leptin release” value with leptin release is “about 37%”.

For `c1ccc2c(c1)N=C(N1CCNCC1)c1ccccc1S2` [N-desalkyl-quetiapine], the “more potent than quetiapine at the 5-HT1A receptor” value on 5-HT1A receptor is on record as 10 fold. Further, on human NET, the “higher avidity for inhibiting human NET than quetiapine” value is listed as “about 100 fold”.
